Laboratory results reported in paper PMC11291853, “Haemodynamic, hormonal and renal actions of osteocrin in normal sheep” (Experimental Physiology, 2024).
Several values for one entry are separate records, joined by “and”; a condition that tells them apart may be missing. Equal entries are not always repeated. Where no end group is shown, it is not given here.

What was measured:
Assay type in all cases: in vivo
normal conscious sheep [1] = assay: Plasma cGMP (RIA) and cAMP (ELISA) responses to stepped OSTN infusion; settings: sheep n = 8, mean ± SD
Method: (§1) Sheep received I.V. infusions of increasing doses of ovine proOSTN (83–133), the putative 51 aa circulating peptide (at 2.5, 25 and 250 pmol/kg/min for 1 h each; Mimotopes, Melbourne, Victoria, Australia) and a vehicle control (0.9% saline) administered on separate days, ≥1 day apart, in a balanced random order.
(§2) Venous blood samples were obtained at 30 min and immediately preceding commencement of the first infusion (baseline) and at 30 min intervals for the duration of the study day. Samples were taken into tubes on ice, centrifuged at 4°C and stored at −20°C before assaying. Following extraction over C18 SepPac cartridges (Waters Corp., Milford, MA, USA), plasma concentrations of cGMP (Charles et al., [1990]), ANP (Charles et al., [1990]), BNP (Pemberton et al., [1997]), CNP (Charles et al., [1995]) and N‐terminal proCNP (NTproCNP) (Wilson et al., [2015]), were measured by radioimmunoassay (RIA) as previously described. Non‐extracted plasma renin activity (PRA) (Dunn & Espiner, [1976]) and aldosterone (Lun et al., [1983]) were measured as previously described. Cyclic AMP was measured by enzyme‐linked immunosorbent assay (catalogue no. ADI‐900‐163; Enzo Life Sciences, Farmingdale, NY, USA). For each analyte, all samples from individual animals were measured in the same assay to avoid interassay variability. Haematocrit concentrations were measured with every blood sample taken.

normal conscious sheep [2] = assay: Plasma renin activity and aldosterone responses to stepped OSTN infusion; settings: sheep n = 8, mean ± SD
Method: as §1, §2

normal conscious sheep [3] = assay: Plasma sodium, potassium and creatinine during stepped OSTN infusion; settings: sheep n = 8, mean ± SD
Method: as §1
(§3) Blood samples for analysis of plasma sodium, potassium and creatinine concentrations were taken immediately before the first dose (baseline), then hourly throughout the study. Urine volume and samples for the measurement of urine cGMP, urine cAMP, sodium, potassium and creatinine excretion were collected hourly throughout the study protocol. To estimate the contribution of renal tissues to urine cGMP/cAMP excretion, nephrogenous cGMP/cAMP was calculated using the formula [urine cG(A)MP − (glomerular filtration rate × plasma cG(A)MP/urine volume × min] (Hirata et al., [1990]).

normal conscious sheep [4] = assay: Renal responses (hourly urine collections, nephrogenous cGMP/cAMP) to stepped OSTN infusion; settings: for Urine cAMP / Urine creatinine / Urine potassium: hourly urine collection, sheep n = 8, mean ± SD
Method: (§4) Eight Coopworth ewes (4–6 years; 42–60 kg; Lincoln University Farm, New Zealand) were instrumented under general anaesthesia (induced by 0.5 mg/kg diazepam I.V. and 4 mg/kg ketamine I.V. and maintained with a mixture of isoflurane and oxygen) and using approved peri‐ and postoperative antibiotics (20 mg/kg cephazolin I.V.; 6.6–20 mg/kg oxytetracycline I.V.) and analgesia (4 mg/kg carprofen I.V.). Sheep were instrumented via a 50‐mm‐long neck incision, allowing cannulation of the left carotid artery (16 gauge Angiocath; Becton Dickinson, Sandy, UT, USA) for direct measurement of mean arterial pressure (MAP) and heart rate (HR). A polyethylene catheter was placed in the left jugular vein for blood sampling and recording of central venous pressure (CVP). A Swan–Ganz thermodilution catheter (Edwards Life Sciences, Irvine, CA, USA) was placed in the pulmonary artery via the jugular vein for the measurement of cardiac output (CO). The urinary bladder was catheterized per urethra for timed urine collections (Charles, Espiner, Nicholls et al., [1996]). Animals recovered for ≥5 days before commencing the study protocol.
as §1, §3

normal conscious sheep [5] = assay: Plasma ANP, BNP, CNP and NTproCNP responses to stepped OSTN infusion (RIA); settings: for Plasma ANP / Plasma BNP / Plasma CNP: sheep n = 8, mean ± SD
Method: as §1, §2

normal conscious sheep [6] = assay: Haemodynamic and haematocrit responses to stepped OSTN infusion; settings: for Fall in mean arterial pressure (MAP) compared with time-matched vehicle control: sheep n = 8
Method: as §4, §1
Haemodynamic measurements [HR, MAP, CVP and CO, and calculated total peripheral resistance (CTPR = MAP/CO)] were recorded at 30 min intervals in the hour preceding the first dose (baseline) and at 15, 30, 45 and 60 min during each infusion. […] Measurements were determined by online computer‐assisted analysis (PowerLab Systems; ADInstruments, Dunedin, New Zealand) and made with the animals standing quietly in their metabolic crates (Charles, Espiner, Nicholls et al., [1996]).
as §2

[7] = 1 h, end of OSTN 2.5 pmol/kg/min I.V.
[8] = 2 h, end of OSTN 25 pmol/kg/min I.V.
[9] = 3 h, end of OSTN 250 pmol/kg/min I.V.
[10] = 4 h, 1 h after end of infusions
[11] = 5 h, 2 h after end of infusions
[12] = end of 60 min OSTN infusion 2.5 pmol/kg/min
[13] = end of 60 min OSTN infusion 25 pmol/kg/min
[14] = end of 60 min OSTN infusion 250 pmol/kg/min

For “SFSGFGSPLDRLSAGSVSHKGKQRKVVDHPKRRFGIPMDRIGRNRLSNSRG [OSTN]”, the “Plasma cAMP” value (normal conscious sheep [1]; [7]) was 11.5 ± 4.8 pmol/L, the “Plasma cAMP” value (normal conscious sheep [1]; [8]) was 11.6 ± 3.0 pmol/L and the “Plasma cAMP” value (normal conscious sheep [1]; [9]) was 12.9 ± 6.5 pmol/L. For the same sequence, the “Plasma cAMP” value (normal conscious sheep [1]; [10]) was 10.4 ± 7.1 pmol/L, the “Plasma cAMP” value (normal conscious sheep [1]; [11]) was 10.7 ± 6.1 pmol/L and the “Plasma cGMP” value (normal conscious sheep [1]; [12]) was 11.2 ± 5.1 nmol/L. For the same sequence, the “Plasma cGMP” value (normal conscious sheep [1]; [13]) was 19.0 ± 11.0 nmol/L, the “Plasma cGMP” value (normal conscious sheep [1]; [14]) was 23.1 ± 9.7 nmol/L and the Plasma aldosterone (normal conscious sheep [2]; [7]) was 199 ± 156 pmol/L. For the same sequence, the Plasma renin activity (normal conscious sheep [2]; [7]) was 0.153 ± 0.070 nmol/L/h, the Plasma aldosterone (normal conscious sheep [2]; [8]) was 176 ± 137 pmol/L and the Plasma renin activity (normal conscious sheep [2]; [8]) was 0.153 ± 0.065 nmol/L/h. It also gave a Plasma aldosterone (normal conscious sheep [2]; [9]) of 167 ± 157 pmol/L, a Plasma renin activity (normal conscious sheep [2]; [9]) of 0.155 ± 0.075 nmol/L/h and a Plasma aldosterone (normal conscious sheep [2]; [10]) of 153 ± 142 pmol/L. For the same sequence, the Plasma renin activity (normal conscious sheep [2]; [10]) was 0.186 ± 0.109 nmol/L/h, the Plasma aldosterone (normal conscious sheep [2]; [11]) was 192 ± 130 pmol/L and the Plasma renin activity (normal conscious sheep [2]; [11]) was 0.241 ± 0.181 nmol/L/h. For the same sequence, the Plasma creatinine (normal conscious sheep [3]; [7]) was 76.6 ± 7.5 µmol/L, the Plasma potassium (normal conscious sheep [3]; [7]) was 3.8 ± 0.3 mmol/L and the Plasma sodium (normal conscious sheep [3]; [7]) was 147.0 ± 2.6 mmol/L. It also gave a Plasma creatinine (normal conscious sheep [3]; [8]) of 75.6 ± 6.9 µmol/L, a Plasma potassium (normal conscious sheep [3]; [8]) of 4.0 ± 0.5 mmol/L and a Plasma sodium (normal conscious sheep [3]; [8]) of 147.0 ± 2.5 mmol/L. The Plasma creatinine (normal conscious sheep [3]; [9]) was 76.4 ± 8.5 µmol/L, the Plasma potassium (normal conscious sheep [3]; [9]) was 4.0 ± 0.5 mmol/L and the Plasma sodium (normal conscious sheep [3]; [9]) was 146.9 ± 2.4 mmol/L. The Plasma creatinine (normal conscious sheep [3]; [10]) was 75.6 ± 8.9 µmol/L, the Plasma potassium (normal conscious sheep [3]; [10]) was 4.1 ± 0.6 mmol/L and the Plasma sodium (normal conscious sheep [3]; [10]) was 147.1 ± 2.2 mmol/L. For the same sequence, the Plasma creatinine (normal conscious sheep [3]; [11]) was 74.6 ± 8.5 µmol/L, the Plasma potassium (normal conscious sheep [3]; [11]) was 4.3 ± 0.6 mmol/L and the Plasma sodium (normal conscious sheep [3]; [11]) was 146.5 ± 2.1 mmol/L. For the same sequence, the “Urine cAMP” value (normal conscious sheep [4]; 1 h, OSTN 2.5 pmol/kg/min I.V.) was 674 ± 367 pmol/h, the Urine creatinine (normal conscious sheep [4]; 1 h, OSTN 2.5 pmol/kg/min I.V.) was 0.635 ± 0.100 mmol/h and the Urine potassium (normal conscious sheep [4]; 1 h, OSTN 2.5 pmol/kg/min I.V.) was 15.6 ± 3.5 mmol/h. For the same sequence, the “Urine cAMP” value (normal conscious sheep [4]; 2 h, OSTN 25 pmol/kg/min I.V.) was 699 ± 322 pmol/h, the Urine creatinine (normal conscious sheep [4]; 2 h, OSTN 25 pmol/kg/min I.V.) was 0.593 ± 0.100 mmol/h and the Urine potassium (normal conscious sheep [4]; 2 h, OSTN 25 pmol/kg/min I.V.) was 12.7 ± 4.9 mmol/h. For the same sequence, the “Urine cAMP” value (normal conscious sheep [4]; 3 h, OSTN 250 pmol/kg/min I.V.) was 549 ± 211 pmol/h, the Urine creatinine (normal conscious sheep [4]; 3 h, OSTN 250 pmol/kg/min I.V.) was 0.586 ± 0.200 mmol/h and the Urine potassium (normal conscious sheep [4]; 3 h, OSTN 250 pmol/kg/min I.V.) was 9.9 ± 3.6 mmol/h. The “Urine cAMP” value (normal conscious sheep [4]; [10]) was 452 ± 219 pmol/h, the Urine creatinine (normal conscious sheep [4]; [10]) was 0.533 ± 0.200 mmol/h and the Urine potassium (normal conscious sheep [4]; [10]) was 7.9 ± 3.4 mmol/h. For the same sequence, the “Urine cAMP” value (normal conscious sheep [4]; [11]) was 891 ± 1136 pmol/h, the Urine creatinine (normal conscious sheep [4]; [11]) was 0.542 ± 0.100 mmol/h and the Urine potassium (normal conscious sheep [4]; [11]) was 7.4 ± 3.6 mmol/h. The “Urine sodium excretion (natriuresis)” value (normal conscious sheep [4]; stepped OSTN infusions vs vehicle, P = 0.226) was “did not increase”, the “Urinary rate (diuresis)” value (normal conscious sheep [4]; stepped OSTN infusions vs vehicle, P = 0.467) was “did not increase” and the “Urinary cGMP excretion” value (normal conscious sheep [4]; stepped OSTN infusions vs vehicle, dose-dependent, P = 0.002) was “increased”. For the same sequence, the “Plasma ANP” value (normal conscious sheep [5]; [12]) was 24.3 ± 10.1 pmol/L and 24 pmol/L, the “Plasma BNP” value (normal conscious sheep [5]; [12]) was 2.0 ± 0.5 pmol/L and the “Plasma CNP” value (normal conscious sheep [5]; [12]) was 1.21 ± 0.30 pmol/L and 1.2 pmol/L. For the same sequence, the “Plasma ANP” value (normal conscious sheep [5]; [13]) was 27.6 ± 10.2 pmol/L, the “Plasma BNP” value (normal conscious sheep [5]; [13]) was 3.1 ± 0.9 pmol/L and the “Plasma CNP” value (normal conscious sheep [5]; [13]) was 2.13 ± 0.50 pmol/L. For the same sequence, the “Plasma ANP” value (normal conscious sheep [5]; [14]) was 33.0 ± 14.2 pmol/L, the “Plasma BNP” value (normal conscious sheep [5]; [14]) was 3.9 ± 2.3 pmol/L and the “Plasma CNP” value (normal conscious sheep [5]; [14]) was 3.81 ± 1.30 pmol/L. For the same sequence, the “Plasma NTproCNP” value (normal conscious sheep [5]; stepped OSTN infusions 2.5, 25, 250 pmol/kg/min vs vehicle, P = 0.064) was “no significant effect”, the “Fall in mean arterial pressure (MAP) compared with time-matched vehicle control” value (normal conscious sheep [6]; end of 2.5 pmol/kg/min infusion period) was ~2 mmHg and the “Fall in mean arterial pressure (MAP) compared with time-matched vehicle control” value (normal conscious sheep [6]; end of 25 pmol/kg/min infusion period) was ~7 mmHg. For the same sequence, the “Fall in mean arterial pressure (MAP) compared with time-matched vehicle control” value (normal conscious sheep [6]; end of 250 pmol/kg/min infusion period) was ~12 mmHg, the “Heart rate (HR)” value (normal conscious sheep [6]; stepped OSTN infusions vs vehicle, P = 0.140) was “did not significantly alter” and the “Calculated total peripheral resistance (CTPR)” value (normal conscious sheep [6]; stepped OSTN infusions vs vehicle, P = 0.356) was “did not significantly alter”. For the same sequence, the Haematocrit (normal conscious sheep [6]; stepped OSTN infusions vs vehicle, P = 0.360) was “did not significantly alter”, the “Cardiac output (CO)” value (normal conscious sheep [6]; stepped OSTN infusions vs vehicle, P = 0.546) was “did not significantly alter” and the “Central venous pressure (CVP)” value (normal conscious sheep [6]; vs vehicle, P = 0.003, significant reductions at 25 and 250 pmol/kg/min) was “reduced”.
